In ChEMBL document CHEMBL1909046, “DrugMatrix in vitro pharmacology data”:
pIC50, pKi: −log10 of the molar value.

Key:
Calcitonin receptor = target: T1, Calcitonin receptor (Homo sapiens, UniProt P30988); format: cell membranes, Membrane; settings: t47d; further: in other assays of this panel Not Active means under 50% inhibition at 10 µM
T1 sequence (P30988 whole entry): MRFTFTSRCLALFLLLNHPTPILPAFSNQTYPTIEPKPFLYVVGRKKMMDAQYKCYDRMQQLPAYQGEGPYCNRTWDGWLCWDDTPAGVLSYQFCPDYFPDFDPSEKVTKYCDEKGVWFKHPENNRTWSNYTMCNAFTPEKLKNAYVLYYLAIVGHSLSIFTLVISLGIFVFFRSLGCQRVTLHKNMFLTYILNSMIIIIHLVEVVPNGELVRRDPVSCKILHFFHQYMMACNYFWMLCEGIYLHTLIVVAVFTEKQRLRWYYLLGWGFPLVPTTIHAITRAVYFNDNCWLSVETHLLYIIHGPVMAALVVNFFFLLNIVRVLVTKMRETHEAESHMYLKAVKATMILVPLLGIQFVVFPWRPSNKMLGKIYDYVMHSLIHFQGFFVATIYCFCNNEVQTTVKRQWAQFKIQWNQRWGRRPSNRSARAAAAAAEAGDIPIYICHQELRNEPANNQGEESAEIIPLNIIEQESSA

[1] = target: Prostaglandin G/H synthase 1 (Homo sapiens, UniProt P23219); assay: biochemical; format: tissue-based, Platelet; settings: platelet;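 further: inhibition of COX-1 enzyme activity, with arachidonic acid supplied as substrate; in other assays of this panel Not Active means under 50% inhibition at 10 µM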
Prostaglandin G/H synthase 1, sequence (P23219 whole entry): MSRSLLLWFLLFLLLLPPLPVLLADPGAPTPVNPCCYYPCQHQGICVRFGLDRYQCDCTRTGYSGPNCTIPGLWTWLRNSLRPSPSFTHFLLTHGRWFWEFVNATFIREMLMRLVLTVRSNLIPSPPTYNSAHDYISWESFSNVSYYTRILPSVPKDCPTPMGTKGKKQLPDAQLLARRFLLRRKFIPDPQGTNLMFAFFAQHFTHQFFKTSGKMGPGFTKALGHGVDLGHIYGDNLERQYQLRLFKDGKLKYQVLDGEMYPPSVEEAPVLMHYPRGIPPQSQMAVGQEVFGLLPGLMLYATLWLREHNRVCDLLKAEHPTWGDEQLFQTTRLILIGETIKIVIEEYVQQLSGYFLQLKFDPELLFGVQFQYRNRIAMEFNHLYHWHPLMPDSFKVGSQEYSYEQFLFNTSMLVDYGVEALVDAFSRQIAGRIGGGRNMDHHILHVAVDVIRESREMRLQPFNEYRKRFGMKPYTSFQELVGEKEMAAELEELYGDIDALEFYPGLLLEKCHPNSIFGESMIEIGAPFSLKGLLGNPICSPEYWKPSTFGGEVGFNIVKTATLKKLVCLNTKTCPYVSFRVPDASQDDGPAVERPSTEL

Endothelin-1 receptor = target: T2, Endothelin-1 receptor (Homo sapiens, UniProt P25101); format: cell membranes, Membrane; settings: cho-k1; further: in other assays of this panel Not Active means under 50% inhibition at 10 µM
T2 sequence (P25101 whole entry): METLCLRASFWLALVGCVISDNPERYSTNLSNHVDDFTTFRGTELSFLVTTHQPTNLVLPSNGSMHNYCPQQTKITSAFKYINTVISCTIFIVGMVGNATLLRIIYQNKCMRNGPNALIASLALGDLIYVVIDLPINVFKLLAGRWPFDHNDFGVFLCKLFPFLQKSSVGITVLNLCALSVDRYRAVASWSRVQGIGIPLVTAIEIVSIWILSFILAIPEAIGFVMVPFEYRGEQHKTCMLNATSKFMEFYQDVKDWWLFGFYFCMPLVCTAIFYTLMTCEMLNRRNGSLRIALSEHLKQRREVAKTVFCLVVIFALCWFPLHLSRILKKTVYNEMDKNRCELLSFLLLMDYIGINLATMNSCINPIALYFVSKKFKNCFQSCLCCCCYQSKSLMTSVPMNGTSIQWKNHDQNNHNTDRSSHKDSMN

[2] = DRUGMATRIX: GABAA, Flunitrazepam, Central radioligand binding (ligand: [3H] Flunitrazepam); format: cell membranes, Rattus norvegicus, Wistar, Brain, Membrane; settings: Not Active = under 50% inhibition at 10 µM
[3] = DRUGMATRIX: Glutamate, NMDA, Phencyclidine radioligand binding (ligand: [3H] TCP); format: cell membranes, Rattus norvegicus, Wistar, Cerebral cortex, Membrane; settings: Not Active = under 50% inhibition at 10 µM
Adenosine receptor A1 = target: T3, Adenosine receptor A1 (Homo sapiens, UniProt P30542); format: cell membranes, CHO, Membrane; settings: cho;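 further: radioligand binding assay at the adenosine A1 receptor, with DPCPX serving as the labelled ligand; in other assays of this panel Not Active means under 50% inhibition at 10 µM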
T3 sequence (P30542 whole entry): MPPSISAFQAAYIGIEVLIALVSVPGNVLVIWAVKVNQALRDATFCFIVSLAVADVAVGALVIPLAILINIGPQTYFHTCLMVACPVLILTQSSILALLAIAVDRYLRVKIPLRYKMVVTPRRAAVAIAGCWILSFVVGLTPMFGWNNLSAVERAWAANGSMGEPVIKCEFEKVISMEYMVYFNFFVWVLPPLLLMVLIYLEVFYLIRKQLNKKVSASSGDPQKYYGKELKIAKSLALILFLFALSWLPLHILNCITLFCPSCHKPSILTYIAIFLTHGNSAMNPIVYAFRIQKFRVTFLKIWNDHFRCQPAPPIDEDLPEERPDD

Compound	IC50 (Calcitonin receptor)	IC50 [1]	IC50 (Endothelin-1 receptor)	pIC50 ([2]; read-out: IC50)	pKi ([2]; read-out: Ki)	IC50 [3]	Ki [3]	IC50 (Adenosine receptor A1)	Ki (Calcitonin receptor)	Ki [1]	Ki (Endothelin-1 receptor)	IC50 [2]	Ki [2]	Ki (Adenosine receptor A1)
CCN(C(C)=O)c1cccc(-c2ccnc3c(C#N)cnn23)c1 [ZALEPLON]	Not Active	Not Active	Not Active	6.39	6.47	Not Active	Not Active	Not Active						
COBALTOUS CHLORIDE	Not Active	Not Active	Not Active			Not Active	Not Active	Not Active	Not Active	Not Active	Not Active	Not Active	Not Active	Not Active
COLISTIN	Not Active	Not Active	Not Active			Not Active	Not Active	Not Active	Not Active	Not Active	Not Active	Not Active	Not Active	Not Active
